Where two headings read alike, the source gives them in different places. Peptide text beside a SMILES is read from it. * marks the point of attachment. C16 diacid = O=C(O)CCCCCCCCCCCCCCC(=O)*; Lauroyl = CCCCCCCCCCCC(=O)*

For orientation: Emax means the maximal effect, on the per cent scale that the assay sets. In general, EC50 refers to the concentration giving half of the maximal effect.

Series [1] has as its target T1, human GIP receptor (Homo sapiens, UniProt P48546).
T1 construct: host or cells: COS-7, transient transfection (calcium phosphate), cDNA in pCMV-Script
T1 sequence (P48546 22-466): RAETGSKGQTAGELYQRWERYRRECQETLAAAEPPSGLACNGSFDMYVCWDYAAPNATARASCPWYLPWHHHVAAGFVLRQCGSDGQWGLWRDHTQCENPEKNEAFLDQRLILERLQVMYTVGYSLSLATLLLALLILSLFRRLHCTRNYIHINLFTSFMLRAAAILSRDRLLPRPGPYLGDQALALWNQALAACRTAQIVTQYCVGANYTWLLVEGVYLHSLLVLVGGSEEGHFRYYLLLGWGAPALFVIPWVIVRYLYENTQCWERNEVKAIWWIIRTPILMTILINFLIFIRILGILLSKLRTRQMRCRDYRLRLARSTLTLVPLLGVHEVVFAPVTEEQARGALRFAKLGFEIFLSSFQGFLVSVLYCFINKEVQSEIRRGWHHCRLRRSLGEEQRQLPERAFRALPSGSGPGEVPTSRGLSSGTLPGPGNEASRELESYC
Briefly: cAMP accumulation assay, agonism (ligand alone). The series is classed as cell-based. Particulars: COS-7 cells, Table 1; for Emax: COS-7, intrinsic cAMP activity; for EC50: read-out: cAMP agonism nM (EC50). In general terms: cAMP levels reflect the balance of adenylyl cyclase and phosphodiesterase activity.

Series [2] concerns the target T1, human GIP receptor. Put plainly: 125I-human GIP competition binding assay, in the presence and absence of 2% HSA.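 For all read-outs here: nonspecific binding taken as radioligand bound to untransfected cells, IC50 obtained from nonlinear regression fits.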 Particulars: for Binding fold (paired): fold decrease in affinity compared to GIP(3-30)NH2; for Fold change HSA (2%)/Casein (0.1%): IC50 (plus HSA)/IC50 (minus HSA).
Setting [3] is: binding in 0.1% casein (absence of HSA), log value, read-out: logIC50 0.1% casein (converted).
Where [4] appears, read: heterologous competition binding, transiently transfected COS-7 cells expressing the human GIP receptor, read-out: Binding.

As for `CCCCCCCCCCCCCC(=O)N[C@@H](CCC(=O)O)C(=O)NCC(=O)N[C@H](C(=O)N[C@@H](Cc1ccccc1)C(=O)N[C@H](C(=O)N[C@@H](CO)C(=O)N[C@@H](CC(=O)O)C(=O)N[C@@H](Cc1ccc(O)cc1)C(=O)N[C@@H](CO)C(=O)N[C@H](C(=O)N[C@@H](C)C(=O)N[C@@H](CCSC)C(=O)N[C@@H](CC(=O)O)C(=O)N[C@@H](CCCCN)C(=O)N[C@H](C(=O)N[C@@H](Cc1c[nH]cn1)C(=O)N[C@@H](CCC(N)=O)C(=O)N[C@@H](CCC(N)=O)C(=O)N[C@@H](CC(=O)O)C(=O)N[C@@H](Cc1ccccc1)C(=O)N[C@H](C(=O)N[C@@H](CC(N)=O)C(=O)N[C@@H](Cc1c[nH]c2ccccc12)C(=O)N[C@@H](CC(C)C)C(=O)N[C@@H](CC(C)C)C(=O)N[C@@H](C)C(=O)N[C@@H](CCC(N)=O)C(=O)N[C@@H](CCCCN)C(N)=O)C(C)C)[C@@H](C)CC)[C@@H](C)CC)[C@@H](C)CC)[C@@H](C)O` [AT110, [hGIP(3-30)NH2—C14/3]], the Emax in series [1] was determined as 64%. Further, the “Binding fold (paired)” value in series [2] (Table 3b) was 5.2 fold.

Turning to `CCCCCCCCCCCCCCCC(=O)N[C@H](C(=O)N[C@@H](Cc1ccccc1)C(=O)N[C@H](C(=O)N[C@@H](CO)C(=O)N[C@@H](CC(=O)O)C(=O)N[C@@H](Cc1ccc(O)cc1)C(=O)N[C@@H](CO)C(=O)N[C@H](C(=O)N[C@@H](C)C(=O)N[C@@H](CCSC)C(=O)N[C@@H](CC(=O)O)C(=O)N[C@@H](CCCCN)C(=O)N[C@H](C(=O)N[C@@H](Cc1c[nH]cn1)C(=O)N[C@@H](CCC(N)=O)C(=O)N[C@@H](CCC(N)=O)C(=O)N[C@@H](CC(=O)O)C(=O)N[C@@H](Cc1ccccc1)C(=O)N[C@H](C(=O)N[C@@H](CC(N)=O)C(=O)N[C@@H](Cc1c[nH]c2ccccc12)C(=O)N[C@@H](CC(C)C)C(=O)N[C@@H](CC(C)C)C(=O)N[C@@H](C)C(=O)N[C@@H](CCC(N)=O)C(=O)N[C@@H](CCCCN)C(N)=O)C(C)C)[C@@H](C)CC)[C@@H](C)CC)[C@@H](C)CC)[C@@H](C)O` [AT124, [hGIP(5-30)NH2—C16/5]], the Emax in series [1] was 0%. The “Fold change HSA (2%)/Casein (0.1%)” value in series [2] is reported as 5.2. Also, the IC50 in series [2] (setting [3]) was 1580 nM.

The molecule `CC[C@H](C)[C@H](NC(=O)[C@H](CO)NC(=O)[C@H](Cc1ccc(O)cc1)NC(=O)[C@H](CC(=O)O)NC(=O)[C@H](CO)NC(=O)[C@@H](NC(=O)[C@H](Cc1ccccc1)NC(=O)[C@@H](N)[C@@H](C)O)[C@@H](C)CC)C(=O)N[C@@H](C)C(=O)N[C@@H](CCSC)C(=O)N[C@@H](CC(=O)O)C(=O)N[C@@H](CCCCNC(=O)CCCCCCCCCCCCCCCCC(=O)O)C(=O)N[C@H](C(=O)N[C@@H](Cc1c[nH]cn1)C(=O)N[C@@H](CCC(N)=O)C(=O)N[C@@H](CCC(N)=O)C(=O)N[C@@H](CC(=O)O)C(=O)N[C@@H](Cc1ccccc1)C(=O)N[C@H](C(=O)N[C@@H](CC(N)=O)C(=O)N[C@@H](Cc1c[nH]c2ccccc12)C(=O)N[C@@H](CC(C)C)C(=O)N[C@@H](CC(C)C)C(=O)N[C@@H](C)C(=O)N[C@@H](CCC(N)=O)C(=O)N[C@@H](CCCCN)C(N)=O)C(C)C)[C@@H](C)CC` [AT141, [hGIP(5-30)NH2—C18diacid/16]] showed an Emax in series [1] of 0%. The “Fold change HSA (2%)/Casein (0.1%)” value in series [2] worked out at 6.5. The IC50 in series [2] (setting [3]) was 2000 nM; in series [2] (setting [4]), 1900 nM.

Turning to `CCCCCCCCCCCCCCCCCC(=O)N[C@@H](CCC(=O)O)C(=O)NCC(=O)N[C@H](C(=O)N[C@@H](Cc1ccccc1)C(=O)N[C@H](C(=O)N[C@@H](CO)C(=O)N[C@@H](CC(=O)O)C(=O)N[C@@H](Cc1ccc(O)cc1)C(=O)N[C@@H](CO)C(=O)N[C@H](C(=O)N[C@@H](C)C(=O)N[C@@H](CCSC)C(=O)N[C@@H](CC(=O)O)C(=O)N[C@@H](CCCCN)C(=O)N[C@H](C(=O)N[C@@H](Cc1c[nH]cn1)C(=O)N[C@@H](CCC(N)=O)C(=O)N[C@@H](CCC(N)=O)C(=O)N[C@@H](CC(=O)O)C(=O)N[C@@H](Cc1ccccc1)C(=O)N[C@H](C(=O)N[C@@H](CC(N)=O)C(=O)N[C@@H](Cc1c[nH]c2ccccc12)C(=O)N[C@@H](CC(C)C)C(=O)N[C@@H](CC(C)C)C(=O)N[C@@H](C)C(=O)N[C@@H](CCC(N)=O)C(=O)N[C@@H](CCCCN)C(N)=O)C(C)C)[C@@H](C)CC)[C@@H](C)CC)[C@@H](C)CC)[C@@H](C)O` [AT113, [hGIP(3-30)NH2—C18/3]], in series [1], the maximal effect (Emax) was 77% and the concentration giving a half-maximal response (EC50) turned out to be 9.9 nM. For the same molecule, in series [2] (Table 3b, initial data, read-out: Binding IC50), the IC50 was 41400 nM. The “Binding fold (paired)” value in series [2] (Table 3b) came to 16380 fold. In addition, the IC50 in series [2] (setting [4]) worked out at 41400 nM.

On to `CCCCCCCCCCCC(=O)NCCCC[C@H](NC(=O)[C@@H](NC(=O)[C@H](CCCCN)NC(=O)[C@H](CC(=O)O)NC(=O)[C@H](CCSC)NC(=O)[C@H](C)NC(=O)[C@@H](NC(=O)[C@H](CO)NC(=O)[C@H](Cc1ccc(O)cc1)NC(=O)[C@H](CC(=O)O)NC(=O)[C@H](CO)NC(=O)[C@@H](NC(=O)[C@H](Cc1ccccc1)NC(=O)[C@@H](NC(=O)CNC(=O)[C@@H](N)CCC(=O)O)[C@@H](C)O)[C@@H](C)CC)[C@@H](C)CC)[C@@H](C)CC)C(=O)N[C@@H](CCC(N)=O)C(=O)N[C@@H](CCC(N)=O)C(=O)N[C@@H](CC(=O)O)C(=O)N[C@@H](Cc1ccccc1)C(=O)N[C@H](C(=O)N[C@@H](CC(N)=O)C(=O)N[C@@H](Cc1c[nH]c2ccccc12)C(=O)N[C@@H](CC(C)C)C(=O)N[C@@H](CC(C)C)C(=O)N[C@@H](C)C(=O)N[C@@H](CCC(N)=O)C(=O)N[C@@H](CCCCN)C(N)=O)C(C)C` [AT116, [hGIP(3-30)NH2—C12/18]] (H-EGTFISDYSIAMDKIK(Lauroyl)QQDFVNWLLAQK-NH2; N-terminus assumed), for which the maximal response (Emax) in series [1] was found to be 0%. The “Fold change in affinity, IC50 (plus HSA)/IC50 (minus HSA)” value in series [2] (presence vs absence of 2% HSA, proxy for albumin binding) is listed as 5.2 fold.

`CCCCCCCCCCCCCCCC(=O)NCCCC[C@H](NC(=O)[C@H](CCC(N)=O)NC(=O)[C@H](C)NC(=O)[C@H](CC(C)C)NC(=O)[C@H](CC(C)C)NC(=O)[C@H](Cc1c[nH]c2ccccc12)NC(=O)[C@H](CC(N)=O)NC(=O)[C@@H](NC(=O)[C@H](Cc1ccccc1)NC(=O)[C@H](CC(=O)O)NC(=O)[C@H](CCC(N)=O)NC(=O)[C@H](CCC(N)=O)NC(=O)[C@H](Cc1c[nH]cn1)NC(=O)[C@@H](NC(=O)[C@H](CCCCN)NC(=O)[C@H](CC(=O)O)NC(=O)[C@H](CCSC)NC(=O)[C@H](C)NC(=O)[C@@H](NC(=O)[C@H](CO)NC(=O)[C@H](Cc1ccc(O)cc1)NC(=O)[C@H](CC(=O)O)NC(=O)[C@H](CO)NC(=O)[C@@H](NC(=O)[C@H](Cc1ccccc1)NC(=O)[C@@H](N)[C@@H](C)O)[C@@H](C)CC)[C@@H](C)CC)[C@@H](C)CC)C(C)C)C(N)=O` [AT126, [hGIP(5-30)NH2—C16/30]]: in series [1], the Emax came out at 75% and the EC50 came to 316 nM.

With `CC[C@H](C)[C@H](NC(=O)[C@H](CO)NC(=O)[C@H](Cc1ccc(O)cc1)NC(=O)[C@H](CC(=O)O)NC(=O)[C@H](CO)NC(=O)[C@@H](NC(=O)[C@H](Cc1ccccc1)NC(=O)[C@@H](NC(=O)CNC(=O)[C@@H](N)CCC(=O)O)[C@@H](C)O)[C@@H](C)CC)C(=O)N[C@@H](C)C(=O)N[C@@H](CCSC)C(=O)N[C@@H](CC(=O)O)C(=O)N[C@@H](CCCCN)C(=O)N[C@H](C(=O)N[C@@H](Cc1c[nH]cn1)C(=O)N[C@@H](CCC(N)=O)C(=O)N[C@@H](CCCCNC(=O)CCCCCCCCCCCCCCC(=O)O)C(=O)N[C@@H](CC(=O)O)C(=O)N[C@@H](Cc1ccccc1)C(=O)N[C@H](C(=O)N[C@@H](CC(N)=O)C(=O)N[C@@H](Cc1c[nH]c2ccccc12)C(=O)N[C@@H](CC(C)C)C(=O)N[C@@H](CC(C)C)C(=O)N[C@@H](C)C(=O)N[C@@H](CCC(N)=O)C(=O)N[C@@H](CCCCN)C(N)=O)C(C)C)[C@@H](C)CC` [AT309, [hGIP(3-30)NH2[Q20K]-C16diacid/20]] (H-EGTFISDYSIAMDKIHQK(C16 diacid)DFVNWLLAQK-NH2; N-terminus assumed), the “cAMP agonism Emax” value in series [1] (intrinsic cAMP activity) is “no ag”.

Molecule `CCCCCCCCCCCCCC(=O)NCCCC[C@H](NC(=O)[C@H](CCC(N)=O)NC(=O)[C@H](C)NC(=O)[C@H](CC(C)C)NC(=O)[C@H](CC(C)C)NC(=O)[C@H](Cc1c[nH]c2ccccc12)NC(=O)[C@H](CC(N)=O)NC(=O)[C@@H](NC(=O)[C@H](Cc1ccccc1)NC(=O)[C@H](CC(=O)O)NC(=O)[C@H](CCC(N)=O)NC(=O)[C@H](CCC(N)=O)NC(=O)[C@H](Cc1c[nH]cn1)NC(=O)[C@@H](NC(=O)[C@H](CCCCN)NC(=O)[C@H](CC(=O)O)NC(=O)[C@H](CCSC)NC(=O)[C@H](C)NC(=O)[C@@H](NC(=O)[C@H](CO)NC(=O)[C@H](Cc1ccc(O)cc1)NC(=O)[C@H](CC(=O)O)NC(=O)[C@H](CO)NC(=O)[C@@H](NC(=O)[C@H](Cc1ccccc1)NC(=O)[C@@H](NC(=O)CNC(=O)[C@@H](N)CCC(=O)O)[C@@H](C)O)[C@@H](C)CC)[C@@H](C)CC)[C@@H](C)CC)C(C)C)C(N)=O` [AT112, [hGIP(3-30)NH2—C14/30]] gave a maximum response (Emax) in series [1] of 29%.

Source of the values: patent US11572399B2, “Long-acting GIP peptide analogues” (University of Copenhagen, priority 2017, dated 2023).
